13 molecules from ChEMBL document CHEMBL5465560, “Selectivity Literature for EUbOPEN Chemogenomic Library” (2024) can be followed below.

Assay [1] addresses Tyrosine-protein kinase Fer (Homo sapiens) (UniProt P16591). Briefly: Selectivity interaction (ActivX KiNativ screen (ex vivo kinase selectivity in human PBMCs)) EUB0001619a FER. In kind it is cell-based. The conditions noted are these: PBMC, at 1 µM.
Assay [2] addresses High affinity nerve growth factor receptor (Homo sapiens, UniProt P04629). Briefly: Selectivity interaction (KinomeScan (DiscoverX)) EUB0001619a NTRK1. The conditions noted are these: at 1 µM.
In assay [3] the target is Ephrin type-A receptor 2 (Homo sapiens) (UniProt P29317). Briefly: Selectivity interaction (SelectScreen profiling (Invitrogen)) EUB0000607a EPHA2. The conditions noted are these: at 2 µM.
For assay [4], the target named is Tyrosine-protein kinase FRK (Homo sapiens) (UniProt P42685). The conditions noted are these: at 10 µM.
For assay [5], the target named is Tyrosine-protein kinase SYK (Homo sapiens, UniProt P43405). Briefly: Selectivity interaction (KinaseProfiler screening (Millipore)) EUB0000601a SYK. The conditions noted are these: at 3 µM.
Assay [6] has as its target MAP kinase-interacting serine/threonine-protein kinase 1 (Homo sapiens) (UniProt Q9BUB5). Briefly: Selectivity interaction (Kinase panel (Invitrogen)) EUB0000639a MKNK1. The conditions noted are these: at 200 nM.
The target of assay [7] is Mitogen-activated protein kinase 14 (Homo sapiens, UniProt Q16539). Briefly: Selectivity interaction (Kinase panel (Invitrogen)) EUB0000639a MAPK14. The conditions noted are these: at 200 nM.
Assay [8] has as its target Phosphatidylinositol 4-phosphate 3-kinase C2 domain-containing subunit alpha (Homo sapiens) (UniProt O00443). Briefly: Selectivity interaction (Kinase panel (Invitrogen)) EUB0000639a PIK3C2A. The conditions noted are these: at 200 nM.
For assay [9], the target named is Phosphatidylinositol 4,5-bisphosphate 3-kinase catalytic subunit gamma isoform (Homo sapiens) (UniProt P48736). Briefly: Selectivity interaction (KinomeScan (DiscoverX)) EUB0000045b PIK3CG.
For assay [10], the target named is Glycogen synthase kinase-3 beta (Homo sapiens, UniProt P49841). Briefly: Selectivity interaction (Kinase panel (literature)) EUB0001199aCl GSK3B. The conditions noted are these: at 1 µM.
Assay [11] concerns the target T1, Tyrosine-protein kinase JAK3 (Homo sapiens) (UniProt P52333).
T1 sequence (whole entry): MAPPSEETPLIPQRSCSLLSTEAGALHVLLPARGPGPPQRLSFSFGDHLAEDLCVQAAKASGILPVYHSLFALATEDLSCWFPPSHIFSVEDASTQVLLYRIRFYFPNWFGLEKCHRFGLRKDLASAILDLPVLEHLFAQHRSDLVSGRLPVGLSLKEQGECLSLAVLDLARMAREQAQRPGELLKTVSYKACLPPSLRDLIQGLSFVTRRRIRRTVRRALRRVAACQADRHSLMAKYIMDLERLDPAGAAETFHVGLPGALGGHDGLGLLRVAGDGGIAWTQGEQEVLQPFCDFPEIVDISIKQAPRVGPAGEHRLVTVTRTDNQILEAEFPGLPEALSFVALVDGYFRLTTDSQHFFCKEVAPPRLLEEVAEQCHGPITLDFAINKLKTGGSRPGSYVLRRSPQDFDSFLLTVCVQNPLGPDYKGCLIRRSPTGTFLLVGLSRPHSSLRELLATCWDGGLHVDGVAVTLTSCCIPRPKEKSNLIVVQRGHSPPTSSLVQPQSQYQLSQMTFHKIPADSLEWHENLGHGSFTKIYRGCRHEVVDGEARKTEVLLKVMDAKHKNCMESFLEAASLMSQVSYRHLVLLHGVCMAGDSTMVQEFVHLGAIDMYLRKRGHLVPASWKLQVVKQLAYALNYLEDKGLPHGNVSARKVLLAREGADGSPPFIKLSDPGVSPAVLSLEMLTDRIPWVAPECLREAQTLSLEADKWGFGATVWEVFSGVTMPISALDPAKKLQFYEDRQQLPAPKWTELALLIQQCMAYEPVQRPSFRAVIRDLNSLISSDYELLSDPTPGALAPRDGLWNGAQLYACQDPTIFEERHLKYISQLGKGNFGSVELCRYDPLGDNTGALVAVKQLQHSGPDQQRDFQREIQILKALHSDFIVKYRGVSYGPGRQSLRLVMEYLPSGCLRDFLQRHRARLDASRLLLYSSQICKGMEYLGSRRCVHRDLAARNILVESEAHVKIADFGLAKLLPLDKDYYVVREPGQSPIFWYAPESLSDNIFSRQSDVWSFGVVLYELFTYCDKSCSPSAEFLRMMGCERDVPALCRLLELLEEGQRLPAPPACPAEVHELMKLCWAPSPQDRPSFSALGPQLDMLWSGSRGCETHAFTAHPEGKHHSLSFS
Briefly: Selectivity interaction (KinomeScan (DiscoverX)) EUB0001049a JAK3. The conditions noted are these: at 1 µM.

Assay [12] deals with Macrophage colony-stimulating factor 1 receptor (Homo sapiens) (UniProt P07333). Briefly: Selectivity interaction (KinomeScan (DiscoverX)) EUB0001049a CSF1R. The conditions noted are these: at 1 µM.
The next assay deals with SRSF protein kinase 1 (Homo sapiens, UniProt Q96SB4). Briefly: Selectivity interaction (KinomeScan (DiscoverX)) EUB0000655a SRPK1. The conditions noted are these: at 10 µM.
Assay [13] deals with Histone acetyltransferase KAT2A (Homo sapiens) (UniProt Q92830). Briefly: Selectivity interaction (Bromodomain panel (DSF asssay)) EUB0000270b KAT2A.
For assay [14], the target named is Mitogen-activated protein kinase kinase kinase 20 (Homo sapiens) (UniProt Q9NYL2). Briefly: Selectivity interaction (KinomeScan (DiscoverX)) EUB0000618a MAP3K20. The conditions noted are these: at 10 µM.
Assay [15] addresses Serine/threonine-protein kinase MRCK alpha (Homo sapiens) (UniProt Q5VT25). Briefly: Selectivity interaction (KinomeScan (DiscoverX)) EUB0000092b CDC42BPA. The conditions noted are these: at 10 µM.
The target of assay [16] is Serine/threonine-protein kinase B-raf (Homo sapiens) (UniProt P15056). Briefly: Selectivity interaction (KinomeScan (DiscoverX)) EUB0000092b BRAF. The conditions noted are these: at 10 µM.
Assay [17] deals with Serine/threonine-protein kinase N2 (Homo sapiens, UniProt Q16513). Briefly: Selectivity interaction (Millipore kinase profiler) EUB0000124b PKN2. The conditions noted are these: at 10 µM.

Chain of Phosphatidylinositol 4,5-bisphosphate 3-kinase catalytic subunit gamma isoform (Homo sapiens) (P48736 whole entry, looked up, canonical isoform): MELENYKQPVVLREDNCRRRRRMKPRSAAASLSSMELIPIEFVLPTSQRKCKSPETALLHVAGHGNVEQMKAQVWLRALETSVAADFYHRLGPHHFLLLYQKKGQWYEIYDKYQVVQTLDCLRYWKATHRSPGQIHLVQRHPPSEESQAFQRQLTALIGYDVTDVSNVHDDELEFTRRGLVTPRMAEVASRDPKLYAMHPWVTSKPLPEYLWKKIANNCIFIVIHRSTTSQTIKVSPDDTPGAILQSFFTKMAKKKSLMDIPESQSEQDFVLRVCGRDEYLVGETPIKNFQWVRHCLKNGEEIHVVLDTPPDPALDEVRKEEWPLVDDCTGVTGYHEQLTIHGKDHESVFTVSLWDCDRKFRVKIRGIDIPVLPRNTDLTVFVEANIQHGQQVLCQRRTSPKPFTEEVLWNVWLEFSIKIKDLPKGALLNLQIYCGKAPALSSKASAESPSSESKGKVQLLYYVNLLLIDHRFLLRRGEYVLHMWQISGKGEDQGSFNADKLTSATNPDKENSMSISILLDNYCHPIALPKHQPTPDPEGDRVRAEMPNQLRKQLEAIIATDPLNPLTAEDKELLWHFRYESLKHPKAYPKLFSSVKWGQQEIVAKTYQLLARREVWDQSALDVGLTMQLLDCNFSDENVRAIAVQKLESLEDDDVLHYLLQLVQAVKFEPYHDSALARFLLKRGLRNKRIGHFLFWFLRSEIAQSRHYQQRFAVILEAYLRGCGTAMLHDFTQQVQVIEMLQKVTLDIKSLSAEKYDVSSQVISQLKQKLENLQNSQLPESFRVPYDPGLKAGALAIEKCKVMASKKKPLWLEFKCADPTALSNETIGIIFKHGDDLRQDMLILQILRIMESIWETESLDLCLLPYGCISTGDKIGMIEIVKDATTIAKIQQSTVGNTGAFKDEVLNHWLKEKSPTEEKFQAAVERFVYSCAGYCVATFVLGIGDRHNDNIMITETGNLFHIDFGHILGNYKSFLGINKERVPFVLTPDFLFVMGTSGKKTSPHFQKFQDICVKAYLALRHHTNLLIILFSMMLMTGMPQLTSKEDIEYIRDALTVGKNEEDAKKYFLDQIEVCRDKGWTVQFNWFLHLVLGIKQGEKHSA
Chain of Histone acetyltransferase KAT2A (Homo sapiens) (Q92830 2-837 limits assumed): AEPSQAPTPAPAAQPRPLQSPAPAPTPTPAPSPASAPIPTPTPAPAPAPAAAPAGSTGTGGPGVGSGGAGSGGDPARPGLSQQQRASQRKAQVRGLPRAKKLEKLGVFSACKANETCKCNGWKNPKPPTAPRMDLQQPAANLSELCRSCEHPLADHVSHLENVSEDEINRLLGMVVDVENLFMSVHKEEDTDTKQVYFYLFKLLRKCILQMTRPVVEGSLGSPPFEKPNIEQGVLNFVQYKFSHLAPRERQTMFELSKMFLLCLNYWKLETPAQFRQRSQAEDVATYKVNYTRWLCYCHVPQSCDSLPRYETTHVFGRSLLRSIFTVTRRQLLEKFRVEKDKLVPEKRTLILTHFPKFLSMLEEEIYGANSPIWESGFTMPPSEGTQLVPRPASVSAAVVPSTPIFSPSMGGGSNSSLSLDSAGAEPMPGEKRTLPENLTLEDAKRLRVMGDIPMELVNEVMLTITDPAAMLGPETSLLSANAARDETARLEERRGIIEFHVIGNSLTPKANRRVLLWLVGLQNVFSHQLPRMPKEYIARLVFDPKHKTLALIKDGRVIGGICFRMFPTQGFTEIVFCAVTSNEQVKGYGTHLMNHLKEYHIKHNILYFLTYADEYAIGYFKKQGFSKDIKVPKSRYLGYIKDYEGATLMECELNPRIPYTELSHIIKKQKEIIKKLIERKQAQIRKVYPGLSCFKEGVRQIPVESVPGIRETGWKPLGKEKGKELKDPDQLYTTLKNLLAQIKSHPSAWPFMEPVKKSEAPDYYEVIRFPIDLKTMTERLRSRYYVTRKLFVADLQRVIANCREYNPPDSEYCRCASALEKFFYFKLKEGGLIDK
Chain of Tyrosine-protein kinase FRK (Homo sapiens) (P42685 whole entry): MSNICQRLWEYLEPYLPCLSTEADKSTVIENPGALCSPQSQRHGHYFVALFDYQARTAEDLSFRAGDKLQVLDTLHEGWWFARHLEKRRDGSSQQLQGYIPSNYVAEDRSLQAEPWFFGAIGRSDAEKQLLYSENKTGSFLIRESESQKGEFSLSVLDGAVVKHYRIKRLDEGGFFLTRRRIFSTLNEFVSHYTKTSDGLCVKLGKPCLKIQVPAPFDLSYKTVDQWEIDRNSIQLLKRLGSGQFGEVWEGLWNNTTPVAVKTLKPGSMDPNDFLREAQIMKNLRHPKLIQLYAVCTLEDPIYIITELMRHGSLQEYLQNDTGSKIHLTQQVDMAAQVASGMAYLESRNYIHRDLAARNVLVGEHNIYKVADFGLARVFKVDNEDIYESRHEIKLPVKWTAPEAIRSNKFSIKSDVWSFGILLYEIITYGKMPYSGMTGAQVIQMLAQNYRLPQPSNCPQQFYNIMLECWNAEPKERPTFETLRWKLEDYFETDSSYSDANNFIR
Chain of Phosphatidylinositol 4-phosphate 3-kinase C2 domain-containing subunit alpha (Homo sapiens) (O00443 whole entry, the tested form may be a part, canonical isoform): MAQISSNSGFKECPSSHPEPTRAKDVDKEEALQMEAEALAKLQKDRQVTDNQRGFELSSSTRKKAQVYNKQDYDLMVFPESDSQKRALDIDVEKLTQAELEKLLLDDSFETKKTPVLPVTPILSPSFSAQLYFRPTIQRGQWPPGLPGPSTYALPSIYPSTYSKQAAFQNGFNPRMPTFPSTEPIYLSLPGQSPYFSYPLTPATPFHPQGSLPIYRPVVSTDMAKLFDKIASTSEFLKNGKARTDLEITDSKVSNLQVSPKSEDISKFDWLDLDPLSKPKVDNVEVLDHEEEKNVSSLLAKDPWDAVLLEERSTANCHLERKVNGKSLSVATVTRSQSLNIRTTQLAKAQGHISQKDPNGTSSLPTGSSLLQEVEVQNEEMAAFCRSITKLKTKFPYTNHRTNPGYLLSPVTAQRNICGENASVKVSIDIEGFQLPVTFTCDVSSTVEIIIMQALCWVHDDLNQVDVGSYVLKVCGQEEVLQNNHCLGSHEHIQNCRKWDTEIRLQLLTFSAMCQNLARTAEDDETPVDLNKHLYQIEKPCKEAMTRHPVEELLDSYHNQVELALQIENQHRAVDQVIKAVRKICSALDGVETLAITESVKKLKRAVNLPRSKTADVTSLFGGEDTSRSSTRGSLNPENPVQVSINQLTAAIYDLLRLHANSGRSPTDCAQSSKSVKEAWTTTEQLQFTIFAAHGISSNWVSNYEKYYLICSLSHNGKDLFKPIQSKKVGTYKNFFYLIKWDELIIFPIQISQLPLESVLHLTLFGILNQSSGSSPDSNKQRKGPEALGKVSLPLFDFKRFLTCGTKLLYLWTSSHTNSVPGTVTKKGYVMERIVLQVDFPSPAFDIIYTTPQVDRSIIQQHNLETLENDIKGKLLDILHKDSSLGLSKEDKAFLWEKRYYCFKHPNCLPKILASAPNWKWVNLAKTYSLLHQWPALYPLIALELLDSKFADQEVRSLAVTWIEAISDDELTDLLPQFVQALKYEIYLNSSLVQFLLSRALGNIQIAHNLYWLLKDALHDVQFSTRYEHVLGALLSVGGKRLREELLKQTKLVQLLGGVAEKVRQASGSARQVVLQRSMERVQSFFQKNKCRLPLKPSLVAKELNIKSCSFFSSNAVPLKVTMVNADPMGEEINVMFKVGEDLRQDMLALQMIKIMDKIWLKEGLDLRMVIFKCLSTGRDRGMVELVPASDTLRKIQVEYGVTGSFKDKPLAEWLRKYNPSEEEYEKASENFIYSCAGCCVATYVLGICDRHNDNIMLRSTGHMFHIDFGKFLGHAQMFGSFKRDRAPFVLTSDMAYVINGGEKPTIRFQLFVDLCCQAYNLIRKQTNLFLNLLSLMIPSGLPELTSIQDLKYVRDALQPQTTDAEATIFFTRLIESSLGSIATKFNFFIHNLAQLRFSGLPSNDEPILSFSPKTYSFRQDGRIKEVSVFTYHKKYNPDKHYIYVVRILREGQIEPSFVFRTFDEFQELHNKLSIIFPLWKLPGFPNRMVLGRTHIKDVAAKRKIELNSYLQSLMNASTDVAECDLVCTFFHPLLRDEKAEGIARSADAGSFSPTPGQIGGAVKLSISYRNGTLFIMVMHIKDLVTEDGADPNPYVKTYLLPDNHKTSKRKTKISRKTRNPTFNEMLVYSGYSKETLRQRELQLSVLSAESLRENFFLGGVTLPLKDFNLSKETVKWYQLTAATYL
Chain of High affinity nerve growth factor receptor (P04629 33-796 limits assumed): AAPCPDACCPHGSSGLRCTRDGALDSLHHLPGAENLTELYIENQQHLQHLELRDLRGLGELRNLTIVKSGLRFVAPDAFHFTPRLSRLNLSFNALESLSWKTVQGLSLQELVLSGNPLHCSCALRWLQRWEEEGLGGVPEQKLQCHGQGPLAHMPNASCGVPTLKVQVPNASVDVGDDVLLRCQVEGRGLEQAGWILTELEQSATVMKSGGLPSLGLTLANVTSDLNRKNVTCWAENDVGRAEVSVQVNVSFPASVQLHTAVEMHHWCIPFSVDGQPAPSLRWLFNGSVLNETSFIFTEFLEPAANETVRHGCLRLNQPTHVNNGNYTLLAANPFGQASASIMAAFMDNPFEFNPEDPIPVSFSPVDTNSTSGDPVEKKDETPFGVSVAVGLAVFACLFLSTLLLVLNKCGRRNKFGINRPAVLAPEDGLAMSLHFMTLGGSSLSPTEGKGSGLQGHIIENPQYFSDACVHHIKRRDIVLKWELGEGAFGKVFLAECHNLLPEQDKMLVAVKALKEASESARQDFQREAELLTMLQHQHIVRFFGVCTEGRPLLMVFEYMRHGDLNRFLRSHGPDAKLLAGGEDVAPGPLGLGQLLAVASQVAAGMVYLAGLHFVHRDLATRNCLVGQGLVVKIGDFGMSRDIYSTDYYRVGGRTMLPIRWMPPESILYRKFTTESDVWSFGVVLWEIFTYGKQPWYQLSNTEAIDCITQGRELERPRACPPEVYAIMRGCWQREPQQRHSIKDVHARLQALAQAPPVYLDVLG

For the molecule `N#Cc1cccc(-c2c[nH]c3ncnc(N4CCOCC4)c23)c1`, the % of inhibition in assay [1] was found to be 2%. In assay [2], this molecule showed a % of control of 88%.
Consider `CNC(=O)Nc1ccc(-c2nc(N3CC4CCC(C3)O4)c3cnn(C4CCC5(CC4)OCCO5)c3n2)cc1`, for which, in assay [3], the % of inhibition was 8%.
In assay [4], `Cc1cc([C@@H](C)Nc2ccccc2C(=O)O)c2nc(N3CCOCC3)cc(=O)n2c1` [AZD-6482] showed a % of control of 83%.
`CCc1cc(Nc2nccc(-c3c(-c4ccc(OC)c(C(=O)Nc5c(F)cccc5F)c4)nc4ccccn34)n2)c(OC)cc1N1CCC(N2CCN(S(C)(=O)=O)CC2)CC1`: the % of inhibition in assay [5] is 50%.
Consider `CC[C@@H]1[C@H](F)C(=O)N[C@@H]1COc1nccc2cc(C(N)=O)c(OC)cc12` [ZIMLOVISERTIB], for which the values for the % of inhibition in assay [6], in [7] and in assay [8] were 46.2%, 18.3% and -2.62%, respectively.
For the molecule `C=CC(=O)Nc1cc(-n2c(=O)ccc3cnc4ccc(-c5ccc(NS(C)(=O)=O)cc5)cc4c32)ccc1C`, the % of control amounted to 2.8% in [9] (at 1 µM) and 0% in [9] (at 10 µM).
For the molecule `CN1Cc2nccc(-c3cn(C)nc3-c3ccc(F)cc3)c2C1=O`, the % of inhibition in assay [10] came out at 1%.
`COc1cc(Nc2nc(C)cc(-c3cnn4nc(OC)ccc34)n2)cc(C(F)(F)F)c1`: the % of control in assay [11] was found to be 93%; in assay [12], 100%.
On to `CN(C)CCOc1ccc(-c2nc(-c3ccncc3)c(-c3ccc4c(c3)CC/C4=N\O)[nH]2)cc1`, for which the % of control at SRSF protein kinase 1 is 86%.
In assay [13], `Cc1cc(CN)cc(C)c1-c1ncn(C)c1-c1cncn1C` returned a dTM of -2.29 K.
In [14], `O[C@H]1CC[C@H](Nc2ncc3nc(Nc4c(F)cc(F)cc4F)n([C@H]4CCOC4)c3n2)CC1` returned a % of control of 100%.
Turning to `CCC(=O)N1CCN(c2ccc(-n3c(=O)ccc4cnc5ccc(-c6cnc7ccccc7c6)cc5c43)cc2C(F)(F)F)CC1`, the % of control stood at 0.7% in assay [15] and 59% in assay [16].
On to `CC(=O)Nc1cccc(-n2c(=O)n(C3CC3)c(=O)c3c(Nc4ccc(I)cc4F)n(C)c(=O)c(C)c32)c1`, for which the % of control in assay [17] was found to be 98%.
